# Laboratory results published in US9018175B2 (Takeda GmbH, priority 2009, dated 2015).
# Columns and labels:
# [1] = biological target: T1, PDE4B1 (Homo sapiens, UniProt Q07343); test: Inhibition of PDE4B1 activity (SPA, [3H]cAMP); type: biochemical; conditions: recombinant PDE4B1 expressed in SF21 cells; 0.5 pM [sic] cAMP; values given as bins; read-out: PDE4B1 inhibitory values measured as −logIC50 (converted)
# T1 construct: made in house; host or cells: SF21 insect cells (baculovirus; pCR-Bac vector)
# In short: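 Recombinant human PDE4B1 (Sf21 cell 1000 g supernatant) in 20 mM Tris pH 7.4, 0.1 mg/ml BSA, 5 mM Mg2+, […] with [3H]cAMP tracer, enzyme giving 10-20% conversion. After 5 min preincubation at 37 °C, 15 min reaction, stopped by SPA beads with IBMX; IC50 by non-linear regression.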
# [2] = biological target: T2, human PDE5 (Homo sapiens, UniProt O76074); test: Inhibition of PDE5 activity (SPA, [3H]cGMP, platelet lysate); type: biochemical; conditions: PDE5 from human platelet lysate; values given as bins; read-out: PDE5A inhibitory values measured as −logIC50 (converted)
# T2 construct: from tissue; host or cells: human platelets from fresh donor blood (10,000 g supernatant of sonicated platelets)
# In short: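 Human platelet lysate served as PDE5 source, with 1 μM motapizone and 10 nM PDE2 inhibitor present; […] plus [3H]cGMP tracer, pH 7.4, 5 mM Mg2+, 10-20% substrate turnover. After 5 min preincubation, 15 min at 37 °C, stopped with SPA beads and IBMX; IC50 by non-linear regression.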
# T1 sequence (Q07343 whole entry): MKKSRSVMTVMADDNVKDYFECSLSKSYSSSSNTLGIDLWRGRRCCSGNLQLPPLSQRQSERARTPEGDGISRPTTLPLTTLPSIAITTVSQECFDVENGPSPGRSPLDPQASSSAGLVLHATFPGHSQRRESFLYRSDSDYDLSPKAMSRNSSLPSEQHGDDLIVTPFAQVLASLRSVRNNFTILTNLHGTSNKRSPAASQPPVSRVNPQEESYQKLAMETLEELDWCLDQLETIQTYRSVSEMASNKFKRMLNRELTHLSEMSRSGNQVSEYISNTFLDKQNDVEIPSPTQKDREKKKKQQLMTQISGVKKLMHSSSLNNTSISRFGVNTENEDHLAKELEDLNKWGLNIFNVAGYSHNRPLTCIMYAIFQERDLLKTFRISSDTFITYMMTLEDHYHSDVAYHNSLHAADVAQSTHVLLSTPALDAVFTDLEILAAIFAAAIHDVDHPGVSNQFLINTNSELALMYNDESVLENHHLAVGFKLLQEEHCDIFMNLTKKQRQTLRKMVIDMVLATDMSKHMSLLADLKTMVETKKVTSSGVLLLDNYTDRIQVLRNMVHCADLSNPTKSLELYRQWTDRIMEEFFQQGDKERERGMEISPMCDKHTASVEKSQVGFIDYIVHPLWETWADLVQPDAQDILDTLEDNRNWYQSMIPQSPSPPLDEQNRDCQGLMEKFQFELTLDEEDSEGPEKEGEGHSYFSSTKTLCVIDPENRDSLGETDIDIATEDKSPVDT
SMILES,IC50 [1] [µM],IC50 [2] [µM]
"CCOc1cc2c(cc1OC)C(c1ccc(C(=O)N3CCC(n4c(=O)c5sc(-c6ccccc6)cc5n(Cc5cc(CC)no5)c4=O)CC3)cc1)=N[C@@H]1CCSC[C@H]21 [Example 3, 3-[1-({4-[(4aR,10bR)-9-ethoxy-8-methoxy-3,4,4a,10b-tetrahydro-1H-thiopyrano[4,3-c]isoquinolin-6-yl]phenyl}carbonyl)piperidin-4-yl]-1-[(3-ethylisoxazol-5-yl)methyl]-6-phenylthieno[3,2-d]pyrimidine-2,4(1H,3H)-dione]",0.001 to 0.01,< 0.01
"CCOc1cc2c(cc1OC)C(c1ccc(C(=O)N3CCC(n4c(=O)c5sc(-c6ccccc6)cc5n(Cc5nnn(COC)n5)c4=O)CC3)cc1)=N[C@@H]1CCSC[C@H]21 [Example 28, 3-[1-({4-[(4aR,10bR)-9-ethoxy-8-methoxy-3,4,4a,10b-tetrahydro-1H-thiopyrano[4,3-c]isoquinolin-6-yl]phenyl}carbonyl)piperidin-4-yl]-1-{[2-(methoxymethyl)-2H-tetrazol-5-yl]methyl}-6-phenylthieno[3,2-d]pyrimidine-2,4(1H,3H)-dione]",< 0.001,< 0.01
"CCOc1cc2c(cc1OC)C(c1ccc(C(=O)N3CCC(n4c(=O)c5sc(-c6ccccc6)cc5n(Cc5nc(CSC)no5)c4=O)CC3)cc1)=N[C@@H]1CCSC[C@H]21 [Example 11, 3-[1-({4-[(4aR,10bR)-9-ethoxy-8-methoxy-3,4,4a,10b-tetrahydro-1H-thiopyrano[4,3-c]isoquinolin-6-yl]phenyl}carbonyl)piperidin-4-yl]-1-({3-[(methylsulfanyl)methyl]-1,2,4-oxadiazol-5-yl}methyl)-6-phenylthieno[3,2-d]pyrimidine-2,4(1H,3H)-dione]",0.001 to 0.01,< 0.01
"CCOc1cc2c(cc1OC)C(c1ccc(C(=O)N3CCC(n4c(=O)c5sc(-c6ccccc6)cc5n(Cc5noc(C)n5)c4=O)CC3)cc1)=N[C@@H]1CCSC[C@H]21 [Example 2, 3-[1-({4-[(4aR,10bR)-9-ethoxy-8-methoxy-3,4,4a,10b-tetrahydro-1H-thiopyrano[4,3-c]isoquinolin-6-yl]phenyl}carbonyl)piperidin-4-yl]-1-[(5-methyl-1,2,4-oxadiazol-3-yl)methyl]-6-phenylthieno[3,2-d]pyrimidine-2,4(1H,3H)-dione]",0.001 to 0.01,< 0.01
"CCOc1cc2c(cc1OC)C(c1ccc(C(=O)N3CCC(n4c(=O)c5sc(-c6ccccc6)cc5n(Cc5nnnn5COC)c4=O)CC3)cc1)=N[C@@H]1CCSC[C@H]21 [Example 29, 3-[1-({4-[(4aR,10bR)-9-ethoxy-8-methoxy-3,4,4a,10b-tetrahydro-1H-thiopyrano[4,3-c]isoquinolin-6-yl]phenyl}carbonyl)piperidin-4-yl]-1-{[1-(methoxymethyl)-1H-tetrazol-5-yl]methyl}-6-phenylthieno[3,2-d]pyrimidine-2,4(1H,3H)-dione]",< 0.001,< 0.01
"CCOc1cc2c(cc1OC)C(c1ccc(C(=O)N3CCC(n4c(=O)c5sc(-c6cccc(F)c6F)cc5n(Cc5nnn(CC)n5)c4=O)CC3)cc1)=N[C@@H]1CCSC[C@H]21 [Example 42, 6-(2,3-difluorophenyl)-3-[1-({4-[(4aR,10bR)-9-ethoxy-8-methoxy-3,4,4a,10b-tetrahydro-1H-thiopyrano[4,3-c]isoquinolin-6-yl]phenyl}carbonyl)piperidin-4-yl]-1-[(2-ethyl-2H-tetrazol-5-yl)methyl]thieno[3,2-d]pyrimidine-2,4(1H,3H)-dione]",> 0.01,0.01 to 0.1
"CCOc1cc2c(cc1OC)C(c1ccc(C(=O)N3CCC(n4c(=O)c5sc(-c6ccccc6)cc5n(Cc5nnc(C(C)(C)C)o5)c4=O)CC3)cc1)=N[C@@H]1CCSC[C@H]21 [Example 58, 1-[(5-tert-butyl-1,3,4-oxadiazol-2-yl)methyl]-3-[1-({4-[(4aR,10bR)-9-ethoxy-8-methoxy-3,4,4a,10b-tetrahydro-1H-thiopyrano[4,3-c]isoquinolin-6-yl]phenyl}carbonyl)piperidin-4-yl]-6-phenylthieno[3,2-d]pyrimidine-2,4(1H,3H)-dione]",0.001 to 0.01,> 0.1
"CCOc1cc2c(cc1OC)C(c1ccc(C(=O)N3CCC(n4c(=O)c5sc(-c6ccccc6F)cc5n(Cc5nc(CC)no5)c4=O)CC3)cc1)=N[C@@H]1CCSC[C@H]21 [Example 48, 3-[1-({4-[(4aR,10bR)-9-ethoxy-8-methoxy-3,4,4a,10b-tetrahydro-1H-thiopyrano[4,3-c]isoquinolin-6-yl]phenyl}carbonyl)piperidin-4-yl]-1-[(3-ethyl-1,2,4-oxadiazol-5-yl)methyl]-6-(2-fluorophenyl)thieno[3,2-d]pyrimidine-2,4(1H,3H)-dione]",0.001 to 0.01,< 0.01
"CCOc1cc2c(cc1OC)C(c1cccc(C(=O)N3CCC(n4c(=O)c5sc(-c6ccccc6)cc5n(Cc5nc(CC)no5)c4=O)CC3)c1)=N[C@@H]1CCSC[C@H]21 [Example 27, 3-[1-({3-[(4aR,10bR)-9-ethoxy-8-methoxy-3,4,4a,10b-tetrahydro-1H-thiopyrano[4,3-c]isoquinolin-6-yl]phenyl}carbonyl)piperidin-4-yl]-1-[(3-ethyl-1,2,4-oxadiazol-5-yl)methyl]-6-phenylthieno[3,2-d]pyrimidine-2,4(1H,3H)-dione]",0.001 to 0.01,< 0.01
"CCOc1cc2c(cc1OC)C(c1ccc(C(=O)N3CCC(n4c(=O)c5sc(-c6cc(F)ccc6OC)cc5n(Cc5nnn(CC)n5)c4=O)CC3)cc1)=N[C@@H]1CCSC[C@H]21 [Example 34, 3-[1-({4-[(4aR,10bR)-9-ethoxy-8-methoxy-3,4,4a,10b-tetrahydro-1H-thiopyrano[4,3-c]isoquinolin-6-yl]phenyl}carbonyl)piperidin-4-yl]-1-[(2-ethyl-2H-tetrazol-5-yl)methyl]-6-(5-fluoro-2-methoxyphenyl)thieno[3,2-d]pyrimidine-2,4(1H,3H)-dione]",> 0.01,0.01 to 0.1
"CCOc1cc2c(cc1OC)C(c1ccc(C(=O)N3CCC(n4c(=O)c5sc(-c6ccc(F)cc6)cc5n(Cc5nc(CC)no5)c4=O)CC3)cc1)=N[C@@H]1CCSC[C@H]21 [Example 47, 3-[1-({4-[(4aR,10bR)-9-ethoxy-8-methoxy-3,4,4a,10b-tetrahydro-1H-thiopyrano[4,3-c]isoquinolin-6-yl]phenyl}carbonyl)piperidin-4-yl]-1-[(3-ethyl-1,2,4-oxadiazol-5-yl)methyl]-6-(4-fluorophenyl)thieno[3,2-d]pyrimidine-2,4(1H,3H)-dione]",0.001 to 0.01,< 0.01
"CCOc1cc2c(cc1OC)C(c1ccc(C(=O)N3CCC(n4c(=O)c5sc(-c6ccccc6)cc5n(Cc5sccc5C)c4=O)CC3)cc1)=N[C@@H]1CCSC[C@H]21 [Example 56, 3-[1-({4-[(4aR,10bR)-9-ethoxy-8-methoxy-3,4,4a,10b-tetrahydro-1H-thiopyrano[4,3-c]isoquinolin-6-yl]phenyl}carbonyl)piperidin-4-yl]-1-[(3-methylthiophen-2-yl)methyl]-6-phenylthieno[3,2-d]pyrimidine-2,4(1H,3H)-dione]",0.001 to 0.01,> 0.1
"CCOc1cc2c(cc1OC)C(c1ccc(C(=O)N3CCC(n4c(=O)c5sc(-c6ccccc6)cc5n(Cc5coc(CC)n5)c4=O)CC3)cc1)=N[C@@H]1CCSC[C@H]21 [Example 16, 3-[1-({4-[(4aR,10bR)-9-ethoxy-8-methoxy-3,4,4a,10b-tetrahydro-1H-thiopyrano[4,3-c]isoquinolin-6-yl]phenyl}carbonyl)piperidin-4-yl]-1-[(2-ethyl-1,3-oxazol-4-yl)methyl]-6-phenylthieno[3,2-d]pyrimidine-2,4(1H,3H)-dione]",0.001 to 0.01,> 0.1
"CCOc1cc2c(cc1OC)C(c1cccc(C(=O)N3CCC(n4c(=O)c5sc(-c6ccccc6)cc5n(Cc5nnn(CC)n5)c4=O)CC3)c1)=N[C@@H]1CCSC[C@H]21 [Example 26, 3-[1-({3-[(4aR,10bR)-9-ethoxy-8-methoxy-3,4,4a,10b-tetrahydro-1H-thiopyrano[4,3-c]isoquinolin-6-yl]phenyl}carbonyl)piperidin-4-yl]-1-[(2-ethyl-2H-tetrazol-5-yl)methyl]-6-phenylthieno[3,2-d]pyrimidine-2,4(1H,3H)-dione]",> 0.01,< 0.01
"CCOc1cc2c(cc1OC)C(c1cccc(C(=O)N3CCC(n4c(=O)c5sc(-c6ccc(F)cc6)cc5n(Cc5nnn(CC)n5)c4=O)CC3)c1)=N[C@@H]1CCSC[C@H]21 [Example 41, 3-[1-({3-[(4aR,10bR)-9-ethoxy-8-methoxy-3,4,4a,10b-tetrahydro-1H-thiopyrano[4,3-c]isoquinolin-6-yl]phenyl}carbonyl)piperidin-4-yl]-1-[(2-ethyl-2H-tetrazol-5-yl)methyl]-6-(4-fluorophenyl)thieno[3,2-d]pyrimidine-2,4(1H,3H)-dione]",> 0.01,< 0.01
"CCOc1cc2c(cc1OC)C(c1ccc(C(=O)N3CCC(n4c(=O)c5sc(-c6ccc(F)cc6OC)cc5n(Cc5nc(COC)no5)c4=O)CC3)cc1)=N[C@@H]1CCSC[C@H]21 [Example 44, 3-[1-({4-[(4aR,10bR)-9-ethoxy-8-methoxy-3,4,4a,10b-tetrahydro-1H-thiopyrano[4,3-c]isoquinolin-6-yl]phenyl}carbonyl)piperidin-4-yl]-6-(4-fluoro-2-methoxyphenyl)-1-{[3-(methoxymethyl)-1,2,4-oxadiazol-5-yl]methyl}thieno[3,2-d]pyrimidine-2,4(1H,3H)-dione]",0.001 to 0.01,< 0.01
